Data on three molecules can be found in patent US20100234220A1, “Oxooxetanes as Fungicidal Agents” (Bayer CropScience AG, priority 2006, published 2010).

A short description of data set [1]: logP determination by HPLC (gradient method, 0.08% HCO2H).
A further data set has as its system Venturia inaequalis. Kind of data set: Venturia test (apple)/protective. Type of data set: in vivo. The note with it: protective, 100 ppm, evaluation 10 days after inoculation. The procedure:
Venturia Test (Apple)/Protective [table] To produce a suitable preparation of active compound, 1 part by weight of active compound is mixed with the stated amounts of solvents and emulsifier, and the concentrate is diluted with water to the desired concentration. To test for protective activity, young plants are sprayed with the preparation of active compound at the stated application rate. After the spray coating has dried on, the plants are inoculated with an aqueous conidia suspension of the apple scab pathogen Venturia inaequalis and then remain in an incubation cabin at about 20° C. and 100% relative atmospheric humidity for 1 day. The plants are then placed in a greenhouse at about 21° C. and a relative atmospheric humidity of about 90%.

As to `CC[C@H](C)[C@@H]1C(=O)O[C@H]1C(=O)NCc1ccc(Cl)cc1` [Example 2, (2R,3S)—N-(4-chlorobenzyl)-3-[(1S)-1-methylpropyl]-4-oxooxetane-2-carboxamide], in data set [1], the chromatographic logP (usually lipophilicity estimated from chromatographic retention) is 3.04.
Still for that read-out and setting: for `CC[C@H](C)[C@@H]1C(=O)O[C@H]1C(=O)Nc1cc(OC)c(OC)c(OC)c1` [Example 3, (2R,3S)-3-[(1S)-1-methylpropyl]-4-oxo-N-(3,4,5-trimethoxyphenyl)oxetane-2-carboxamide] the value was 2.5.
In the case of `CC[C@H](C)[C@@H]1C(=O)O[C@H]1C(=O)NCc1cc(OC)cc(OC)c1` [Example 1, (3S)-(1S-Methylpropyl)-(2R)-(3,5-dimethoxybenzylaminocarbonyl)-4-oxooxetane], in the data set on Venturia inaequalis, the efficacy was at least 70%.
